We go through 1 compound from US8450324B2, “Crystalline base of trans-1-((1R,3S)-6-chloro-3-phenylindan-1-yl)-3,3-dimethylpiperazine” (H. Lunbeck A/S, priority 2005, dated 2013).

The target of series [1] is DA D2 receptors (Homo sapiens, UniProt P14416). To be noted: as described in PCT/DK04/000546; cited from earlier work.
Series [2] relates to QT interval. To be noted: rabbit model; as described in PCT/DK04/000546; cited from earlier work.
In series [3] the test system is alfa1 adrenoceptors. To be noted: as described in PCT/DK04/000546; cited from earlier work.
Series [4] addresses dopamine (DA) D1 receptors (Homo sapiens, UniProt P21728). The conditions noted are these: as described in PCT/DK04/000546; cited from earlier work.
For series [5], the target named is dopamine D2 receptors (Homo sapiens, UniProt P14416). To be noted: as described in PCT/DK04/000546; cited from earlier work.
Chain of dopamine D2 receptors (P14416 whole entry): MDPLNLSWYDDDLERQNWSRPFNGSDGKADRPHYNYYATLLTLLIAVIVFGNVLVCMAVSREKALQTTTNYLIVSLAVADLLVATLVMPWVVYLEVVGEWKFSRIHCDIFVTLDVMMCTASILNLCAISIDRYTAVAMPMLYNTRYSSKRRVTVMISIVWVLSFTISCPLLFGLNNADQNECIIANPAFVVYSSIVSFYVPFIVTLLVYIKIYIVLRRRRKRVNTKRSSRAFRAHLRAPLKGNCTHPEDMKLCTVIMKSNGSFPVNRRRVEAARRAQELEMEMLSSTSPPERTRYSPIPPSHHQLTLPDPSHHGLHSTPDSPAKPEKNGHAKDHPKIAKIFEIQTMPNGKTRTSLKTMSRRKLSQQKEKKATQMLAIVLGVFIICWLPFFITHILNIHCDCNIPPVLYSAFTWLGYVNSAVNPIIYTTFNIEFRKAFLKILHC
Series [6] concerns the target serotonin 5-HT2a receptors (Homo sapiens, UniProt P28223). The conditions noted are these: as described in PCT/DK04/000546; cited from earlier work.
Series [7] concerns the target dopamine D1 receptors (Homo sapiens, UniProt P21728). To be noted: as described in PCT/DK04/000546; cited from earlier work.
Series [8] relates to pigs sensitized to haloperidol. The series is described as follows: dystonia in pigs sensitized to haloperidol. The series is classed as in vivo.
Series [9] deals with CYP2D6 (Homo sapiens, UniProt P10635). The conditions noted are these: as described in PCT/DK04/000546; cited from earlier work.
Chain of CYP2D6 (P10635 whole entry): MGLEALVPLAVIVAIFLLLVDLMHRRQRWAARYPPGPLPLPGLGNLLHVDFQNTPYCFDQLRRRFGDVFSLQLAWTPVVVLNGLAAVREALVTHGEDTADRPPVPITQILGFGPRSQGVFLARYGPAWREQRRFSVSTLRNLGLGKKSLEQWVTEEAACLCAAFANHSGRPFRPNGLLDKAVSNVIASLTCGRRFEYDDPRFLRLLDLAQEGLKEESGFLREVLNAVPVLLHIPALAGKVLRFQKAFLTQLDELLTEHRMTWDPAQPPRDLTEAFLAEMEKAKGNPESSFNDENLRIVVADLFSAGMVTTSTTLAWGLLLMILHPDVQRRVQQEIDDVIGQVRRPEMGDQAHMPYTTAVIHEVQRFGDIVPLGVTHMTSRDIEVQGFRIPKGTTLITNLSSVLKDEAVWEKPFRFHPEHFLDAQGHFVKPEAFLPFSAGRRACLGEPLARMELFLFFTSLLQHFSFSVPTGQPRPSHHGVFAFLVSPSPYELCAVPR

Chain of dopamine D1 receptors (P21728 whole entry): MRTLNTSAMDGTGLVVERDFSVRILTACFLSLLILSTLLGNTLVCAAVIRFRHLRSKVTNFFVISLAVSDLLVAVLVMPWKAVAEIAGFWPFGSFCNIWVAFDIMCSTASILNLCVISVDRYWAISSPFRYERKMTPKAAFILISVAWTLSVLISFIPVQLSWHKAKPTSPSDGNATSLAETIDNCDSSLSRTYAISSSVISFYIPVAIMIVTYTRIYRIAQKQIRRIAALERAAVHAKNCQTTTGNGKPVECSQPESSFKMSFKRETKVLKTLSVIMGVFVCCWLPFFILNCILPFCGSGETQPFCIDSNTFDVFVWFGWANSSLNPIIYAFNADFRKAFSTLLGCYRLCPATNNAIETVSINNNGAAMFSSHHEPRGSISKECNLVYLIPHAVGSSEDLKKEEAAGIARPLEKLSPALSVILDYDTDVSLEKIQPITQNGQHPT
Chain of dopamine (DA) D1 receptors (P21728 whole entry): as above
Chain of DA D2 receptors (P14416 whole entry): as the sequence (P14416 whole entry) above
Chain of serotonin 5-HT2a receptors (P28223 whole entry): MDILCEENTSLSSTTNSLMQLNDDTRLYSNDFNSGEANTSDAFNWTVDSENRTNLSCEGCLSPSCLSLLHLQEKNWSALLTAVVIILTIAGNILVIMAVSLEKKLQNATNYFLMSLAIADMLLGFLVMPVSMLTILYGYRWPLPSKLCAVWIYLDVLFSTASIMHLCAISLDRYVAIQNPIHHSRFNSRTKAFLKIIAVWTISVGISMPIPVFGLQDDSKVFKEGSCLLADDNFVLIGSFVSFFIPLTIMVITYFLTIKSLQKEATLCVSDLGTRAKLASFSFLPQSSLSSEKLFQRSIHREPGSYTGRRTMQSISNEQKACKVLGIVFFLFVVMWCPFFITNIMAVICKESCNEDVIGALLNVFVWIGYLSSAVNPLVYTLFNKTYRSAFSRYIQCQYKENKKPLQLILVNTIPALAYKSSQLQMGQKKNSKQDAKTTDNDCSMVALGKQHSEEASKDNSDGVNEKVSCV

`CC1(C)CN([C@@H]2C[C@@H](c3ccccc3)c3ccc(Cl)cc32)CCN1` [Compound I, trans-1-((1R,3S)-6-chloro-3-phenylindan-1-yl)-3,3-dimethylpiperazine]: the “affinity for DA D2 receptors” value in series [1] was “high affinity”. Further, in series [2], the “effect on the QT interval” value is “relatively low effect”. In addition, in [3], the “affinity for alfa1 adrenoceptors” value was “high affinity”. Besides, the “affinity for dopamine (DA) D1 receptors” value in series [4] is “high affinity”. Further, the “functional activity at dopamine D2 receptors” value in series [5] is reported as “antagonist”. Also, the “functional activity at serotonin 5-HT2a receptors” value in series [6] is recorded as “antagonist”. In addition, the “functional activity at dopamine D1 receptors” value in [7] is “antagonist”. In addition, in series [8], the “induction of dystonia (EPS liability)” value is “did not induce dystonia”. Moreover, the “inhibition of CYP2D6” value in [9] is “relatively weak inhibitor”.
